In patent publication US20240132431A1, “METHOD FOR ALKYLATING ACIDIC FUNCTIONAL GROUP” (Chugai Seiyaku Kabushiki Kaisha, priority 2021, published 2024):

Target: T1, Bcl-2 protein (Recombinant Human Bcl-2 Protein) (Homo sapiens, UniProt P10415)
T1 construct: purchased Novus NBP2-34889
Assay: Binding evaluation of mixture library compounds to Bcl-2 using AS-MS (affinity selection mass spectrometry)
Conditions: AS-MS, mixture library, Bcl-2, ASMS Ratio(%)=(A−C)/B×100; for ASMS ratio (%) n = 1: replicate n = 1; for ASMS ratio (%) n = 2: replicate n = 2
How it was run: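 Bcl-2 binding is scored from LC/MS signal retained with protein through gel-filtration spin columns, normalised to unfiltered and protein-free controls. Incubation: 20 μM protein, […] per compound, 1 h, 23° C.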

T1 sequence (P10415 whole entry): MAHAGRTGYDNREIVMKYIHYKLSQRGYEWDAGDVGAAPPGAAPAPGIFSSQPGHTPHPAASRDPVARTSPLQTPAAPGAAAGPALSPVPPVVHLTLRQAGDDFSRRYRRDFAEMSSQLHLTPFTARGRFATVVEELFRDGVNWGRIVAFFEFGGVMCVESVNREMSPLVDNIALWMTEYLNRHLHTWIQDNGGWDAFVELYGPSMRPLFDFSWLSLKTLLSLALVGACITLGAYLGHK

SMILES | ASMS ratio (%) n = 1 [%] | ASMS ratio (%) n = 2 [%]
CCOc1cncc(-c2cnn(-c3cc(C(=O)N4CCN(c5ccc(C(=O)NS(=O)(=O)CC67CC8CC(CC(C8)C6)C7)cc5)CC4)cc(C(F)(F)F)c3)c2)c1 [B2A044-01, N-(1-Adamantylmethylsulfonyl)-4-[4-[3-[4-(5-ethoxypyridin-3-yl)pyrazol-1-yl]-5-(trifluoromethyl)benzoyl]piperazin-1-yl]benzamide] | 0.7 | −0.2
CCOc1cccc(-c2ccccc2CN2CCN(c3ccc(C(=O)NS(=O)(=O)CC45CC6CC(CC(C6)C4)C5)cc3)CC2)c1 [B2A045-01, N-(1-Adamantylmethylsulfonyl)-4-[4-[[2-(3-ethoxyphenyl)phenyl]methyl]piperazin-1-yl]benzamide] | 6.5 | −2.9
CCOc1cncc(-c2ccccc2CN2CCN(c3ccc(C(=O)NS(=O)(=O)CC45CC6CC(CC(C6)C4)C5)cc3)CC2)c1 [B2A046-01, N-(1-Adamantylmethylsulfonyl)-4-[4-[[2-(5-ethoxypyridin-3-yl)phenyl]methyl]piperazin-1-yl]benzamide] | −2.7 | −22.1
CCOc1cccc(-c2ccc(CN3CCN(c4ccc(C(=O)NS(=O)(=O)CC56CC7CC(CC(C7)C5)C6)cc4)CC3)cc2C)c1 [B2A047-01, N-(1-Adamantylmethylsulfonyl)-4-[4-[[4-(3-ethoxyphenyl)-3-methylphenyl]methyl]piperazin-1-yl]benzamide] | 9.7 | 0.4
CCOc1cncc(-c2ccc(CN3CCN(c4ccc(C(=O)NS(=O)(=O)CC56CC7CC(CC(C7)C5)C6)cc4)CC3)cc2C)c1 [B2A048-01, N-(1-Adamantylmethylsulfonyl)-4-[4-[[4-(5-ethoxypyridin-3-yl)-3-methylphenyl]methyl]piperazin-1-yl]benzamide] | 18.2 | 2.1
CCOc1cccc(-c2ccc(CN3CCN(c4ccc(C(=O)NS(=O)(=O)CC56CC7CC(CC(C7)C5)C6)cc4)CC3)c(CC)c2)c1 [B2A049-01, N-(1-Adamantylmethylsulfonyl)-4-[4-[[4-(3-ethoxyphenyl)-2-ethylphenyl]methyl]piperazin-1-yl]benzamide] | −3.0 | 6.2
CCOc1cncc(-c2ccc(CN3CCN(c4ccc(C(=O)NS(=O)(=O)CC56CC7CC(CC(C7)C5)C6)cc4)CC3)c(CC)c2)c1 [B2A050-01, N-(1-Adamantylmethylsulfonyl)-4-[4-[[4-(5-ethoxypyridin-3-yl)-2-ethylphenyl]methyl]piperazin-1-yl]benzamide] | −1.1 | 1.6
CCOc1cccc(-c2ccc(CN3CCN(c4ccc(C(=O)NS(=O)(=O)CC56CC7CC(CC(C7)C5)C6)cc4)CC3)cc2F)c1 [B2A051-01] | −0.3 | 3.6
CCOc1cncc(-c2ccc(CN3CCN(c4ccc(C(=O)NS(=O)(=O)CC56CC7CC(CC(C7)C5)C6)cc4)CC3)cc2F)c1 [B2A052-01, N-(1-Adamantylmethylsulfonyl)-4-[4-[[4-(5-ethoxypyridin-3-yl)-3-fluorophenyl]methyl]piperazin-1-yl]benzamide] | 0.0 | 0.0
CCOc1cccc(-c2ccc(CN3CCN(c4ccc(C(=O)NS(=O)(=O)CC56CC7CC(CC(C7)C5)C6)cc4)CC3)c(OC)c2)c1 [B2A053-01, N-(1-Adamantylmethylsulfonyl)-4-[4-[[4-(3-ethoxyphenyl)-2-methoxyphenyl]methyl]piperazin-1-yl]benzamide] | 0.0 | 0.0
CCOc1cncc(-c2ccc(CN3CCN(c4ccc(C(=O)NS(=O)(=O)CC56CC7CC(CC(C7)C5)C6)cc4)CC3)c(OC)c2)c1 [B2A054-01, N-(1-Adamantylmethylsulfonyl)-4-[4-[[4-(5-ethoxypyridin-3-yl)-2-methoxyphenyl]methyl]piperazin-1-yl]benzamide] | 17.5 | −0.9
CCOc1cccc(-c2cc(CN3CCN(c4ccc(C(=O)NS(=O)(=O)CC56CC7CC(CC(C7)C5)C6)cc4)CC3)cc(OCC)c2)c1 [B2A055-01, N-(1-Adamantylmethylsulfonyl)-4-[4-[[3-ethoxy-5-(3-ethoxyphenyl)phenyl]methyl]piperazin-1-yl]benzamide] | 5.8 | −7.3
CCOc1cncc(-c2cc(CN3CCN(c4ccc(C(=O)NS(=O)(=O)CC56CC7CC(CC(C7)C5)C6)cc4)CC3)cc(OCC)c2)c1 [B2A056-01, N-(1-Adamantylmethylsulfonyl)-4-[4-[[3-ethoxy-5-(5-ethoxypyridin-3-yl)phenyl]methyl]piperazin-1-yl]benzamide] | −3.9 | 0.2
CCOc1cccc(-c2cc(CN3CCN(c4ccc(C(=O)NS(=O)(=O)CC56CC7CC(CC(C7)C5)C6)cc4)CC3)cc(OC(C)C)c2)c1 [B2A057-01, N-(1-Adamantylmethylsulfonyl)-4-[4-[[3-(3-ethoxyphenyl)-5-propan-2-yloxyphenyl]methyl]piperazin-1-yl]benzamide] | −4.8 | −5.3
CCOc1cncc(-c2cc(CN3CCN(c4ccc(C(=O)NS(=O)(=O)CC56CC7CC(CC(C7)C5)C6)cc4)CC3)cc(OC(C)C)c2)c1 [B2A058-01, N-(1-Adamantylmethylsulfonyl)-4-[4-[[3-(5-ethoxypyridin-3-yl)-5-propan-2-yloxyphenyl]methyl]piperazin-1-yl]benzamide] | 4.8 | −10.6
CCOc1cccc(-c2cc(OC)c(CN3CCN(c4ccc(C(=O)NS(=O)(=O)CC56CC7CC(CC(C7)C5)C6)cc4)CC3)c(OC)c2)c1 [B2A059-01, N-(1-Adamantylmethylsulfonyl)-4-[4-[[4-(3-ethoxyphenyl)-2,6-dimethoxyphenyl]methyl]piperazin-1-yl]benzamide] | 0.0 | −42.2
CCOc1cncc(-c2cc(OC)c(CN3CCN(c4ccc(C(=O)NS(=O)(=O)CC56CC7CC(CC(C7)C5)C6)cc4)CC3)c(OC)c2)c1 [B2A060-01, N-(1-Adamantylmethylsulfonyl)-4-[4-[[4-(5-ethoxypyridin-3-yl)-2,6-dimethoxyphenyl]methyl]piperazin-1-yl]benzamide] | 0.0 | 0.0
CCOc1cccc(-c2cc(CN3CCN(c4ccc(C(=O)NS(=O)(=O)CC56CC7CC(CC(C7)C5)C6)cc4)CC3)cc(C(F)(F)F)c2)c1 [B2A061-01, N-(1-Adamantylmethylsulfonyl)-4-[4-[[3-(3-ethoxyphenyl)-5-(trifluoromethyl)phenyl]methyl]piperazin-1-yl]benzamide] | 1.7 | −5.6
CCOc1cncc(-c2cc(CN3CCN(c4ccc(C(=O)NS(=O)(=O)CC56CC7CC(CC(C7)C5)C6)cc4)CC3)cc(C(F)(F)F)c2)c1 [B2A062-01, N-(1-Adamantylmethylsulfonyl)-4-[4-[[3-(5-ethoxypyridin-3-yl)-5-(trifluoromethyl)phenyl]methyl]piperazin-1-yl]benzamide] | −5.2 | 3.6
CCOc1cccc(-c2cc(CN3CCN(c4ccc(C(=O)NS(=O)(=O)CC56CC7CC(CC(C7)C5)C6)cc4)CC3)cc(OC(F)(F)F)c2)c1 [B2A063-01, N-(1-Adamantylmethylsulfonyl)-4-[4-[[3-(3-ethoxyphenyl)-5-(trifluoromethoxy)phenyl]methyl]piperazin-1-yl]benzamide] | 0.5 | 3.3
CCOc1cncc(-c2cc(CN3CCN(c4ccc(C(=O)NS(=O)(=O)CC56CC7CC(CC(C7)C5)C6)cc4)CC3)cc(OC(F)(F)F)c2)c1 [B2A064-01, N-(1-Adamantylmethylsulfonyl)-4-[4-[[3-(5-ethoxypyridin-3-yl)-5-(trifluoromethoxy)phenyl]methyl]piperazin-1-yl]benzamide] | 0.0 | −0.3
CCOc1cccc(-c2ccc(CN3CCN(c4ccc(C(=O)NS(=O)(=O)CC56CC7CC(CC(C7)C5)C6)cc4)CC3)c3ccccc23)c1 [B2A065-01, N-(1-Adamantylmethylsulfonyl)-4-[4-[[4-(3-ethoxyphenyl)naphthalen-1-yl]methyl]piperazin-1-yl]benzamide] | 10.5 | −2.9
CCOc1cncc(-c2ccc(CN3CCN(c4ccc(C(=O)NS(=O)(=O)CC56CC7CC(CC(C7)C5)C6)cc4)CC3)c3ccccc23)c1 [B2A066-01, N-(1-Adamantylmethylsulfonyl)-4-[4-[[4-(5-ethoxypyridin-3-yl)naphthalen-1-yl]methyl]piperazin-1-yl]benzamide] | 3.2 | 0.0
CCOc1cccc(-c2csc(CN3CCN(c4ccc(C(=O)NS(=O)(=O)CC56CC7CC(CC(C7)C5)C6)cc4)CC3)c2)c1 [B2A067-01, N-(1-Adamantylmethylsulfonyl)-4-[4-[[4-(3-ethoxyphenyl)thiophen-2-yl]methyl]piperazin-1-yl]benzamide] | 0.0 | 0.0
